Read-outs that look alike come from different tables or passages of the source.
How the values were obtained:
[1] = tested on: B16F1 cells; assay: Colony forming (clonogenic) assay of B16F1 cells; assay type: cell-based, murine; conditions: 24 hours
Description: One hundred viable cells, as determined by trypan blue exclusion, were plated per 35 mm dish in MEM and incubated for 24 hours at 37° C. Next, 4-propyl-5(4-pyridinyl)-2(3H)-oxazolone was added and incubation continued for an additional 24 hours, after which the dishes were washed twice with Hank's Balanced Salt Solution (HBSS) and replenished with MEM. Ten days later, colonies with a diameter of 2 mm or greater were counted.
B16F1 cells (10^2) were plated and incubated for 24
hours at 37° C. Next, 4-propyl-5(4-pyridinyl)-2(3H)-
oxazolone (compound 1) was added and incubation continued
for an additional 24 hours at which time the drug was
removed. Ten days later, colonies greater than 2 mm in […]

[2] = tested on: cytosolic PKC; assay: PKC activity in cytosol of pretreated B16F1 cells; assay type: cell-based, murine; conditions: 24 hours
Description: (§1) Protein Kinase C Preparation
(§2) Cytostolic and membrane-associated PKC was prepared as described in Thomas, T. P., Gopalakrishna, R. and Anderson, W. B. Hormone- and tumor promoter-induced activation of membrane association of protein kinase C in intact cells, Methodsin Enzymology, 141: 399-411, 1987. Sub-confluent B16F1 cultures (4×10^7 cells total) were washed twice with phosphate buffered saline (PBS), pH 7.2 and then twice with buffer A (20 mM Tris, pH 7.5, 2 mM EDTA, 0.5 mM EGTA, […], 2 mM phenylmethylsulfonyl fluoride (PMSF), and 2 μg/ml leupeptin). Cells were scraped from the plates in buffer A, homogenized (40 strokes) and sedimented by centrifugation for 1 hour at 100,000 g. The cytosol was stored on ice while the particulate fraction was washed with buffer B (20 mM Tris, pH 7.2, 2 mM EDTA, 0.5 mM EGTA, and 2 mM (PMSF). The membranes were resuspended with buffer B and homogenized with 10 strokes. Nonidet P-40 (1% final concentration) was added and the mixture was incubated for 30 minutes at 4° C. in a rotating mixer. Nonsolubilized material was removed by centrifugation for 10 minutes at 1400 g. Cytostolic and membrane-bound PKC was partially purified by chromatography over 1 ml columns of DE-52 (Whatman) equilibrated with buffer B. The enzyme was applied to the column and washed with 2×3 ml buffer B. Elution of PKC was then effected by the addition of 2 ml buffer B containing 100 mM NaCl.
PKC was quantitated as described in Thomas et al., ibid. The assay contained 20 mM Tris (pH 7.5), 0.75 mM CaCl, 10 mM magnesium acetate, […] histone III-S, 0.25 μg/ml leupeptin, 100 μM [gamma-^32 p]-ATP (120 cpm/pmol), 0.96 μg/ml phosphatidylserine, and 0.0064 μg/ml 1,2-diolein in a total assay volume of 250 μl. Blanks contained no calcium or phospholipids. Incubation was for 5 minutes at 30° C. at which point the reaction was terminated by the addition of 1 ml 25% trichloroacetic acid (TCA). […]
(§3) then prepared and its activity was measured as described in […]

[3] = tested on: collagen IV; assay: Adhesion of B16F1 cells to collagen IV; assay type: cell-based; conditions: 24 hours
Description: (§4) Adhesion of B16F1 Cells to Basement Membrane Proteins
(§5) Adhesion proteins (2 μg/well) were coated onto Immulon I Removawells from Dynatech and incubated for 1 hour at 37° C. The wells were then blocked for 1 hour with 400 μl PBS, pH 7.2 containing 1% bovine serum albumin (BSA) at 37° C. Prior to addition of the cell suspension, the blocking solution was aspirated.
(§6) Sub-confluent cells were washed twice with HBSS and removed form flasks by incubation for 10 minutes at 37° C. with PBS (pH 7.2), 2 mM EDTA, and 1% BSA. The cells were washed twice with MEM containing 20 mM HEPES and 0.1% BSA and resuspended in the same medium to give a cell density of […].
(§7) Cells were added to wells in 50 μl (5×10^4 cells) and incubated at 37° C. The wells were aspirated and washed three times with 400 μl PBS (pH 7.2) containing 0.1% BSA. Wells were detached and counted in 5 ml Beckman Ready Protein. Blanks were not coated with protein but were blocked with BSA as described above.

[4] = tested on: laminin; assay: Adhesion of B16F1 cells to laminin; assay type: cell-based; conditions: 24 hours
Description: as §4, §5, §6, §7

[5] = tested on: membrane-associated PKC; assay: Inhibition of B16F1 membrane-associated PKC activity; assay type: biochemical, murine; conditions: B16F1 membrane fraction
Description: as §1, §2
(§8) PKC was quantitated as described in Thomas et al., ibid. The assay contained 20 mM Tris (pH 7.5), 0.75 mM CaCl, 10 mM magnesium acetate, […] histone III-S, 0.25 μg/ml leupeptin, 100 μM [gamma-^32 p]-ATP (120 cpm/pmol), 0.96 μg/ml phosphatidylserine, and 0.0064 μg/ml 1,2-diolein in a total assay volume of 250 μl. Blanks contained no calcium or phospholipids. Incubation was for 5 minutes at 30° C. at which point the reaction was terminated by the addition of 1 ml 25% trichloroacetic acid (TCA). Samples were applied to Whatman GF/B filters, the tube rinsed twice with 5% TCA and the filter then washed 5 times with 5% TCA.

[6] = tested on: B16F1 cells; assay: Experimental lung metastasis assay (B16F1 cells treated in culture, then injected intravenously into C57BL/6 mice); assay type: in vivo, murine (C57BL/6 mice); conditions: for % Control (number of nodules) / Number of nodules per set of lungs, Mean +/- SE: 24 hours; for IC50: cells exposed to drugs for 24 hours, nodules counted three weeks later, read-out: B16 Metastasis IC50
Description: Experimental Metastasis Assay
Sub-confluent B16F1 cells were harvested by washing with HBSS followed by trypsinization for 1 minute. The cells were sedimented by centrifugation (250 g, 5 minutes) and washed twice with HBSS. Viable cells were counted after dilution with trypan blue. A single-cell suspension of 10^5 cells in 0.2 ml HBSS was injected intravenously into 16-18 C57BL/6 mice via the tail vein. Three weeks later, the number of metastatic foci in the lung were counted.

[7] = tested on: cytosolic PKC; assay: Inhibition of B16F1 cytosolic PKC activity; assay type: biochemical, murine; conditions: B16F1 cytosol fraction
Description: as §1, §2, §8
^a Subconfluent B16F1 cells were harvested and cytosol and membrane
fractions prepared as described in Materials and Methods. PKC activity wa
then measured in the presence of the drugs listed.

[8] = tested on: membrane-associated PKC; assay: PKC activity in membranes of pretreated B16F1 cells; assay type: cell-based, murine; conditions: 24 hours
Description: as §1, §2, §8
B16F1 cells were incubated with 4-propyl-5(4-
pyridinyl)-2(3H)-oxazolone for 24 hours at 37° C. PKC was
as §3

[9] = tested on: B16F1 murine melanoma cells; assay: Viability of treated B16F1 cells by [3H]-thymidine incorporation; assay type: cell-based; conditions: 24 hours

- IC50 [5]: 13 µM
- IC50 ([6]; Mus musculus, B16-F1, iv): 6.8 µM
- IC50 [6]: 7 µM
- IC50 [7]: 54 µM
SMILES: CCCc1[nH]c(=O)oc1-c1ccncc1 [Compound 1, 4-propyl-5(4-pyridinyl)-2(3H)-oxazolone]
- Colonies per dish, Mean +/- SE ([1]; 10 μM): 27 +/- 2 colonies per dish
- Colonies per dish, Mean +/- SE ([1]; 20 μM): 34 +/- 1 colonies per dish
- Colonies per dish, Mean +/- SE ([1]; 50 μM): 29 +/- 1 colonies per dish
- viability of treated cells (clonogenic assay) [1]: equivalent to untreated cells
- PKC Activity, cytosol ([2]; 5 μM): 7305 pmol per min per mg protein
- PKC Activity, cytosol ([2]; 25 μM): 2485 pmol per min per mg protein
- PKC Activity, cytosol ([2]; 50 μM): 3658 pmol per min per mg protein
- adhesion to collagen IV [3]: most sensitive to inhibition
- adherence to laminin [4]: inhibited minimally or not at all
- % Control (number of nodules) ([6]; 1 μM): 67%
- Number of nodules per set of lungs, Mean +/- SE ([6]; 1 μM): 12 +/- 2.8 nodules per set of lungs
- % Control (number of nodules) ([6]; 5 μM): 78%
- Number of nodules per set of lungs, Mean +/- SE ([6]; 5 μM): 14 +/- 3.3 nodules per set of lungs
- % Control (number of nodules) ([6]; 10 μM): 43%
- Number of nodules per set of lungs, Mean +/- SE ([6]; 10 μM): 7.8 +/- 2.1 nodules per set of lungs
- % Control (number of nodules) ([6]; 20 μM): 30%
- Number of nodules per set of lungs, Mean +/- SE ([6]; 20 μM): 5.4 +/- 1.1 nodules per set of lungs
- % Control (number of nodules) ([6]; 50 μM): 12%
- Number of nodules per set of lungs, Mean +/- SE ([6]; 50 μM): 2 +/- 0.6 nodules per set of lungs
- inhibition of lung metastasis ([6]; 24 hours in culture, then intravenous injection into C57BL/6 mice): 90%
- number of lung metastases ([6]; cells exposed in vitro, then injected into mice): diminished the number of lung metastases
- incubation time for 50% of maximum inhibition of metastasis ([6]; time dependence of incubation): ≤ 8 h
- potency for inhibition of metastasis relative to H-7 ([6]; versus H-7): more potent than H-7
- potency for inhibition of metastasis relative to staurosporine ([6]; versus staurosporine): significantly less potent than staurosporine
- PKC Activity Ratio membrane/cytosol ([8]; 5 μM): 0.29
- PKC Activity, membrane ([8]; 5 μM): 2151 pmol per min per mg protein
- PKC Activity Ratio membrane/cytosol ([8]; 25 μM): 0.61
- PKC Activity, membrane ([8]; 25 μM): 1511 pmol per min per mg protein
- PKC Activity Ratio membrane/cytosol ([8]; 50 μM): 0.27
- PKC Activity, membrane ([8]; 50 μM): 1000 pmol per min per mg protein
- viability of treated cells ([3H]-thymidine incorporation) [9]: equivalent to untreated cells

Source: patent US5610171A, “Inhibition of metastasis in patients having cancer with pyridyloxazole-2-ones” (Merrell Pharmaceuticals Inc., priority 1995, dated 1997)
